{
  "source": "patent US10973810B2",
  "about": "“Methods for the treatment of neurological disorders” (Yumanity Therapeutics, Inc., priority 2017, dated 2021)",
  "key": {"human SCD1": {"target": "T1, human SCD1 (Homo sapiens, UniProt O00767)", "T1 construct": "host or cells: S. cerevisiae ole1Δ strain (W303 pdr1Δ pdr3Δ background), plasmid pRS316 with TDH3 promoter and CYC1 terminator", "T1 sequence (O00767 1-359)": "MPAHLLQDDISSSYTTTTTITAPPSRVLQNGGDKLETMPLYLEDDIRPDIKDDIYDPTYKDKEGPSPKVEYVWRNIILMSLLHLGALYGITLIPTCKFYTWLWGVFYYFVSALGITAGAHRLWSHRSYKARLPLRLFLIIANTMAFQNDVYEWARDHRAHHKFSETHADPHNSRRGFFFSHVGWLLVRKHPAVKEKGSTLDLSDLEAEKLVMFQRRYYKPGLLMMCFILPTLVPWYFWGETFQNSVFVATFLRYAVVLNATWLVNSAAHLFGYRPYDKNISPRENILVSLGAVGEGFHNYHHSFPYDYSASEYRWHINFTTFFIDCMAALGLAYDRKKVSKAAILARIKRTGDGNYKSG", "experiment": "Growth of humanized yeast surviving solely on human SCD1", "type": "cell-based", "conditions": "growth inhibition", "excerpt": "The coding sequence of yeast OLE1 was also cloned into this plasmid). These clones were then transformed into the ole1d strain and plated on CSM-Ura media (CSM lacking uracil) with 2% glucose (w/v) and independent colonies were isolated and amplified.\nFor experiments using a plasmid-borne copy of Ole1, SCD1, or SCD5 (FIGS. 3B, 6, and 7), media lacking uracil (SX-Ura, where X is glucose, raffinose, or galactose), was used for all steps of the compound profiling protocol to ensure its maintenance throughout the assay.\nAfter yeast delivery, assay plates were incubated under humidified conditions at 30° C. for 24 to 40 h. ApoE4 rescue experiments were stopped at 24 h, aSyn experiments at 40 h, Ole1 at 24 h, and SCD1/SCD5 at 40 h. The growth of yeast was monitored by reading the OD600 of each well using a microplate reader (Perkin Elmer EnVision™)."}, "SCD": {"tested_on": "SCD", "experiment": "Fatty acid saturation in guinea pig brain after oral administration of SCD inhibitors (GC-FID of FAME)", "type": "in vivo", "conditions": "25 mg/kg orally twice daily for 5 days; brain 4 h after last dose; vs vehicle", "description": "FIG. 18A-18F are a series of graphs showing an evaluation of fatty acid saturation in guinea pig brain after oral administration of SCD inhibitors. Guinea pigs were dosed orally with SCD inhibitors twice daily (every 12 hours) for 5 days. Guinea pigs were dosed with vehicle, SCD5 Selective Inhibitor 1 (“SCD5-SI-1”), SCD5 Selective Inhibitor 2 (“SCD5-SI-2”), CAY10566 (“CAY”) or SCD1/SCD5 Inhibitor 1 (“SCD1/5-1”), all compounds at 25 mg/kg with a volume-matched vehicle control. Four hours after the last dose on day 5, guinea pigs were sacrificed, and brains were removed after whole-body saline perfusion. […] Samples were evaluated on a gas chromatograph with a flame ionization detector (GC-FID) to quantify a comprehensive panel of fatty acid species. Brain samples were evaluated for levels of 16 (FIG. 18A) and 18 (FIG. 18B) carbon-containing fatty acids (C16, C18 respectively), and the desaturation index (DI) was calculated by taking the ratio of desaturated to saturated fatty acid for each species. […] Brain samples were evaluated for the relative levels of the positional isomers of C16, including C16:1 n7 palmitoleic acid (FIG. 18C) or C16:1 n9 monounsaturated fatty acids (FIG. 18D). […] Data was analyzed by one-way ANOVA with Tukey's post-hoc test to account for multiple comparisons. **p<0.01, ***p<0.005, ****p<0.0001. […]"}},
  "data": [
    {"compound": "Cc1nnc(-c2ccc(N3CCC(Oc4cc(F)ccc4Cl)CC3)nn2)o1", "note": "[CAY10566]", "values": [
      {"measurement": "half-maximal inhibitory concentration (IC50), SCD1 humanized strain", "setting": "human SCD1", "result": "low nanomolar"},
      {"measurement": "C16 desaturation index (DI) in brain", "setting": "SCD", "result": "decreased"}
    ]}
  ]
}
